Reference: article PMC10174317, “^18F-labeled FGFR1 peptide: a new PET probe for subtype FGFR1 receptor imaging” (Frontiers in Oncology, 2023)
Where a SMILES comes first, the peptide text is derived from it. The star is where a group is joined. NOTA = O=C(O)CN1CCN(CC(=O)O)CCN(CC(=O)*)CC1; AEEA = NCCOCCOCC(=O)O

Assays:
[1] = In vitro stability in normal saline (RP-HPLC); format: physicochemical; conditions: 37°C, 1, 2, 4 and 6 h
Procedure: (§1) The in vitro and in vivo stability of [^18F]F-FGFR1 was evaluated by RP-HPLC analysis. […] The radiochemical purity of the final compounds was determined by RP-HPLC.

[2] = Micro-PET/CT biodistribution in A549 xenografts; format: in vivo, BALB/c nude mice; conditions: female, BALB/c nude, mouse, iv, total radioactivity, 11.1 MBq tail vein, micro-PET/CT ROI, mean ± SD; for tissue uptake at 0.5 h: 30 min post-injection; for tissue uptake at 1 h: 60 min post-injection; for tissue uptake at 2 h: 120 min post-injection
Procedure: (§2) All animal experiments were carried out in accordance with the Laboratory Animal Ethical Review of Animal Guidelines of China. BALB/c nude mice (sex, female; age, 4 weeks, body weight range, 19-21 g; China) were used for this study. Four cell lines (2*10^7 cells/nude mouse) were subcutaneously injected into the right forelimb to induce solid tumors. All xenograft nude mice were housed in laminar flow cabinets in a specific pathogen-free (SPF) environment and were provided ad libitum access to food and water at the Laboratory Animal Center of the Fourth Hospital of Hebei Medical University (China). The indication for micro-PET/CT imaging was xenografts with a tumor volume of 50-130 mm^3. All animal experiments strictly adhered to the Principles of the Laboratory Animal Ethical Committee of the Fourth Hospital Hebei Medical University (No. 2020016).
(§3) Xenograft mice (n=5) were fastly injected of 200 µl of [^18F]F-FGFR1 (11.1 MBq) through tail vein. For the in vivo blocking study, RT-112 (FGFR1-high expression) tumor-bearing mice (n = 5) were injected with a tracer that was mixed with 200-fold (1.58 mg) unlabeled peptide to saturate the receptors in the tumors. Mice were anesthetized via 3% isoflurane inhalation (RWD Life Science Inc. China) for induction and 2% isoflurane inhalation for maintenance. Micro-PET/CT imaging was performed on a micro-PET/SPECT/CT machine (NOVEL MEDICAL Equipment Ltd. China). Whole-body scans were performed 30, 60 and 120 min after tracer administration. The CT scanning parameters were 80 kV, 0.5 mA, 2000 ms/frames, and 360 frames; the images were reconstructed with a 512*512 matrix and a slice thickness of 0.18 mm. PET images were acquired with a 140*140 matrix and 10 min of total acquisition time. Reconstructed images were processed with the comprehensive image analysis software Pmod v4.201 (PMOD Technologies LLC. Switzerland). The biodistribution of the major organs (brain, heart, lung, liver, kidney, bone and muscle) and tumor were analyzed by manually outlining the regions of interest (ROIs) of the entire organs and tissue at each time point of the micro-PET/CT scan. The radioactivity accumulated in bone and muscle was measured in the limbs without xenograft tumors.

[3] = Micro-PET/CT biodistribution in Calu-3 xenografts; format: in vivo, BALB/c nude mice; conditions: female, BALB/c nude, mouse, iv, total radioactivity, 11.1 MBq tail vein, micro-PET/CT ROI, mean ± SD; for tissue uptake at 0.5 h: 30 min post-injection; for tissue uptake at 1 h: 60 min post-injection; for tissue uptake at 2 h: 120 min post-injection
Procedure: as §2, §3

[4] = In vivo radiochemical stability, urine of xenograft nude mice (RP-HPLC); conditions: urine of xenograft nude mice 60 min after injection of 7.4 MBq; one peak at 5.7 min; fluorine-18 at 4 min
Procedure: For the in vivo radiochemical stability experiment, urine samples were obtained from xenograft nude mice 60 min after injection of 150 µl (7.4 MBq, 2.53 GBq/μmol) [^18F]F-FGFR1 and analyzed by RP-HPLC.

[5] = In vitro stability in fresh human serum (RP-HPLC); format: in vitro ADME; conditions: 37°C, 1, 2, 4 and 6 h
Procedure: as §1

[6] = Micro-PET/CT biodistribution in RT-112-blocked xenografts; format: in vivo, BALB/c nude mice; conditions: female, BALB/c nude, mouse, iv, total radioactivity, n=5; for tissue uptake at 0.5 h / tissue uptake at 1 h / tissue uptake at 2 h: RT-112-blocked xenografts (tracer mixed with 200-fold, 1.58 mg, unlabeled peptide), 11.1 MBq tail vein, micro-PET/CT ROI, mean ± SD; for tissue uptake at 0.5 h: 30 min post-injection; for tissue uptake at 1 h: 60 min post-injection
Procedure: as §2, §3

[7] = bone, n=5, read-out: Biodistribution, Bone
[8] = brain, n=5, read-out: Biodistribution, Brain
[9] = heart, n=5, read-out: Biodistribution, Heart
[10] = kidney, n=5, read-out: Biodistribution, Kidney
[11] = liver, n=5, read-out: Biodistribution, Liver
[12] = lung, n=5, read-out: Biodistribution, Lung
[13] = muscle, n=5, read-out: Biodistribution, Muscle
[14] = tumor, n=5, read-out: Biodistribution, Tumor
[15] = bone, read-out: Biodistribution, Bone
[16] = brain, read-out: Biodistribution, Brain
[17] = heart, read-out: Biodistribution, Heart
[18] = kidney, read-out: Biodistribution, Kidney
[19] = liver, read-out: Biodistribution, Liver
[20] = lung, read-out: Biodistribution, Lung
[21] = muscle, read-out: Biodistribution, Muscle
[22] = tumor, read-out: Biodistribution, Tumor

**Q.** Which results are given for `CC(C)C[C@H](NC(=O)[C@H](CO)NC(=O)[C@H](CCCCN)NC(=O)[C@H](Cc1c[nH]c2ccccc12)NC(=O)[C@H](CCC(=O)O)NC(=O)[C@H](C)NC(=O)[C@H](CCCCN)NC(=O)COCCOCCNC(=O)CN1CCN(CC(=O)O)CCN(CC(=O)O)CC1)C(=O)NCC(=O)N[C@@H](CCC(=O)O)C(=O)N[C@@H](CCC(=O)O)C(=O)N[C@@H](C)C(=O)N[C@@H](Cc1c[nH]c2ccccc12)C(=O)N[C@@H](Cc1c[nH]cn1)C(=O)N[C@@H](CO)C(=O)N[C@@H](CCCCN)C(=O)O` [[^18F]F-FGFR1] ({NOTA-AEEA}-KAEWKSLGEEAWHSK-OH; N-terminus and C-terminus assumed)?
**A.** Radiochemical purity after incubation (in vitro stability) [1]: exceeded 90%; tissue uptake at 0.5 h [2, 7]: 0.33 ± 0.1 %ID/g; tissue uptake at 1 h [2, 7]: 0.35 ± 0.06 %ID/g; tissue uptake at 2 h [2, 7]: 0.39 ± 0.02 %ID/g; tissue uptake at 0.5 h [2, 8]: 0.61 ± 0.06 %ID/g; tissue uptake at 1 h [2, 8]: 0.72 ± 0.13 %ID/g; tissue uptake at 2 h [2, 8]: 0.64 ± 0.17 %ID/g; tissue uptake at 0.5 h [2, 9]: 0.9 ± 0.09 %ID/g; tissue uptake at 1 h [2, 9]: 0.88 ± 0.04 %ID/g; tissue uptake at 2 h [2, 9]: 0.64 ± 0.07 %ID/g; tissue uptake at 0.5 h [2, 10]: 9.35 ± 1.87 %ID/g; tissue uptake at 1 h [2, 10]: 7.89 ± 1.06 %ID/g; tissue uptake at 2 h [2, 10]: 4.46 ± 0.6 %ID/g; tissue uptake at 0.5 h [2, 11]: 1.53 ± 0.11 %ID/g; tissue uptake at 1 h [2, 11]: 1.52 ± 0.18 %ID/g; tissue uptake at 2 h [2, 11]: 1.58 ± 0.08 %ID/g; tissue uptake at 0.5 h [2, 12]: 0.69 ± 0.12 %ID/g; tissue uptake at 1 h [2, 12]: 0.65 ± 0.04 %ID/g; tissue uptake at 2 h [2, 12]: 0.53 ± 0.07 %ID/g; tissue uptake at 0.5 h [2, 13]: 0.27 ± 0.03 %ID/g; tissue uptake at 1 h [2, 13]: 0.27 ± 0.02 %ID/g; tissue uptake at 2 h [2, 13]: 0.28 ± 0.02 %ID/g; tissue uptake at 0.5 h [2, 14]: 0.87 ± 0.08 %ID/g; tissue uptake at 1 h [2, 14]: 0.64 ± 0.08 %ID/g; tissue uptake at 2 h [2, 14]: 0.53 ± 0.04 %ID/g; tissue uptake at 0.5 h [3, 7]: 0.42 ± 0.05 %ID/g; tissue uptake at 1 h [3, 7]: 0.36 ± 0.05 %ID/g; tissue uptake at 2 h [3, 7]: 0.37 ± 0.04 %ID/g; tissue uptake at 0.5 h [3, 8]: 0.6 ± 0.04 %ID/g; tissue uptake at 1 h [3, 8]: 0.66 ± 0.06 %ID/g; tissue uptake at 2 h [3, 8]: 0.67 ± 0.18 %ID/g; tissue uptake at 0.5 h [3, 9]: 0.79 ± 0.08 %ID/g; tissue uptake at 1 h [3, 9]: 0.8 ± 0.07 %ID/g; tissue uptake at 2 h [3, 9]: 0.79 ± 0.17 %ID/g; tissue uptake at 0.5 h [3, 10]: 8.47 ± 0.83 %ID/g; tissue uptake at 1 h [3, 10]: 7.48 ± 0.6 %ID/g; tissue uptake at 2 h [3, 10]: 3.02 ± 0.69 %ID/g; tissue uptake at 0.5 h [3, 11]: 1.4 ± 0.07 %ID/g; tissue uptake at 1 h [3, 11]: 1.54 ± 0.12 %ID/g; tissue uptake at 2 h [3, 11]: 1.33 ± 0.17 %ID/g; tissue uptake at 0.5 h [3, 12]: 0.62 ± 0.08 %ID/g; tissue uptake at 1 h [3, 12]: 0.54 ± 0.06 %ID/g; tissue uptake at 2 h [3, 12]: 0.48 ± 0.04 %ID/g; tissue uptake at 0.5 h [3, 13]: 0.28 ± 0.04 %ID/g; tissue uptake at 1 h [3, 13]: 0.25 ± 0.03 %ID/g; tissue uptake at 2 h [3, 13]: 0.3 ± 0.04 %ID/g; tissue uptake at 0.5 h [3, 14]: 0.59 ± 0.08 %ID/g; tissue uptake at 1 h [3, 14]: 0.58 ± 0.06 %ID/g; tissue uptake at 2 h [3, 14]: 0.43 ± 0.03 %ID/g; In vivo radiochemical stability (RP-HPLC of urine) [4]: no peak corresponded to fluorine-18; Radiochemical purity after incubation (in vitro stability) [5]: exceeded 90%; tissue uptake at 0.5 h [6, 15]: 0.31 ± 0.07 %ID/g; tissue uptake at 1 h [6, 15]: 0.37 ± 0.04 %ID/g; tissue uptake at 2 h ([6]; bone, 120 min post-injection, read-out: Biodistribution, Bone): 0.35 ± 0.07 %ID/g; tissue uptake at 0.5 h [6, 16]: 0.61 ± 0.03 %ID/g; tissue uptake at 1 h [6, 16]: 0.61 ± 0.06 %ID/g; tissue uptake at 2 h ([6]; brain, 120 min post-injection, read-out: Biodistribution, Brain): 0.71 ± 0.1 %ID/g; tissue uptake at 0.5 h [6, 17]: 0.74 ± 0.08 %ID/g; tissue uptake at 1 h [6, 17]: 0.7 ± 0.07 %ID/g; tissue uptake at 2 h ([6]; heart, 120 min post-injection, read-out: Biodistribution, Heart): 0.75 ± 0.14 %ID/g; tissue uptake at 0.5 h [6, 18]: 9.35 ± 0.82 %ID/g; tissue uptake at 1 h [6, 18]: 7.31 ± 0.87 %ID/g; tissue uptake at 2 h ([6]; kidney, 120 min post-injection, read-out: Biodistribution, Kidney): 3.37 ± 0.54 %ID/g; tissue uptake at 0.5 h [6, 19]: 0.67 ± 0.16 %ID/g; tissue uptake at 1 h [6, 19]: 0.51 ± 0.09 %ID/g; tissue uptake at 2 h ([6]; liver, 120 min post-injection, read-out: Biodistribution, Liver): 0.5 ± 0.09 %ID/g; tissue uptake at 0.5 h [6, 20]: 0.6 ± 0.05 %ID/g; tissue uptake at 1 h [6, 20]: 0.59 ± 0.04 %ID/g; tissue uptake at 2 h ([6]; lung, 120 min post-injection, read-out: Biodistribution, Lung): 0.51 ± 0.07 %ID/g; tissue uptake at 0.5 h [6, 21]: 0.26 ± 0.03 %ID/g; tissue uptake at 1 h [6, 21]: 0.29 ± 0.03 %ID/g; tissue uptake at 2 h ([6]; muscle, 120 min post-injection, read-out: Biodistribution, Muscle): 0.27 ± 0.02 %ID/g; tissue to tissue ratio at 2 h ([6]; tumor and liver, RT-112-blocked xenografts (200-fold unlabeled peptide), 120 min post-injection, micro-PET/CT, read-out: Tumor to liver ratio (T/L)): 0.85 ± 0.22; tissue uptake at 0.5 h [6, 22]: 0.4 ± 0.02 %ID/g; tissue uptake at 1 h [6, 22]: 0.39 ± 0.03 %ID/g; tissue uptake at 2 h ([6]; tumor, 120 min post-injection, read-out: Biodistribution, Tumor): 0.4 ± 0.02 %ID/g
